# Measured values reported in US10723724B2, “Compounds for treating degenerative diseases of central nervous system or brain tumor, and uses thereof” (SUN YAT-SEN UNIVERSITY, priority 2016, dated 2020).
# Columns and labels:
# Assay type in all cases: biochemical
# [1] = molecular target: T1, CSNK1G1 (CK1 gamma 1) (Homo sapiens, UniProt Q9HCP0); assay: Kinase screening service: CSNK1G1; conditions: average of duplicates
# T1 construct: purchased Life Technologies Corporation (Kinase Screening Service)
# Procedure: (§1) The inhibitory effect of PT109 on other kinases including SGK and JNK was detected by the Kinase Screening Service of Life Technologies Corporation (The concentration of compound 9 was 10 μM, measurements were performed in duplicates, and the value was represented by an average) to investigate the selectivity of the compound for JNK and SGK1.
# [2] = molecular target: T2, FGFR4 (Homo sapiens, UniProt P22455); assay: Kinase screening service: FGFR4; conditions: average of duplicates
# T2 construct: purchased Life Technologies Corporation (Kinase Screening Service)
# Procedure: as §1
# [3] = molecular target: T3, EGFR (ErbB1) (Homo sapiens, UniProt P00533); assay: Kinase screening service: EGFR; conditions: average of duplicates
# T3 construct: purchased Life Technologies Corporation (Kinase Screening Service)
# Procedure: as §1
# [4] = molecular target: T4, TYRO3 (RSE) (Homo sapiens, UniProt Q06418); assay: Kinase screening service: TYRO3; conditions: average of duplicates
# T4 construct: purchased Life Technologies Corporation (Kinase Screening Service)
# Procedure: as §1
# [5] = molecular target: T5, PKN1 (PRK1) (Homo sapiens, UniProt Q16512); assay: Kinase screening service: PKN1; conditions: average of duplicates
# T5 construct: purchased Life Technologies Corporation (Kinase Screening Service)
# Procedure: as §1
# [6] = molecular target: T6, NEK4 (Homo sapiens, UniProt P51957); assay: Kinase screening service: NEK4; conditions: average of duplicates
# T6 construct: purchased Life Technologies Corporation (Kinase Screening Service)
# Procedure: as §1
# [7] = molecular target: T7, NTRK1 (TRKA) (Homo sapiens, UniProt P04629); assay: Kinase screening service: NTRK1; conditions: average of duplicates
# T7 construct: purchased Life Technologies Corporation (Kinase Screening Service)
# T7 sequence (P04629 33-796): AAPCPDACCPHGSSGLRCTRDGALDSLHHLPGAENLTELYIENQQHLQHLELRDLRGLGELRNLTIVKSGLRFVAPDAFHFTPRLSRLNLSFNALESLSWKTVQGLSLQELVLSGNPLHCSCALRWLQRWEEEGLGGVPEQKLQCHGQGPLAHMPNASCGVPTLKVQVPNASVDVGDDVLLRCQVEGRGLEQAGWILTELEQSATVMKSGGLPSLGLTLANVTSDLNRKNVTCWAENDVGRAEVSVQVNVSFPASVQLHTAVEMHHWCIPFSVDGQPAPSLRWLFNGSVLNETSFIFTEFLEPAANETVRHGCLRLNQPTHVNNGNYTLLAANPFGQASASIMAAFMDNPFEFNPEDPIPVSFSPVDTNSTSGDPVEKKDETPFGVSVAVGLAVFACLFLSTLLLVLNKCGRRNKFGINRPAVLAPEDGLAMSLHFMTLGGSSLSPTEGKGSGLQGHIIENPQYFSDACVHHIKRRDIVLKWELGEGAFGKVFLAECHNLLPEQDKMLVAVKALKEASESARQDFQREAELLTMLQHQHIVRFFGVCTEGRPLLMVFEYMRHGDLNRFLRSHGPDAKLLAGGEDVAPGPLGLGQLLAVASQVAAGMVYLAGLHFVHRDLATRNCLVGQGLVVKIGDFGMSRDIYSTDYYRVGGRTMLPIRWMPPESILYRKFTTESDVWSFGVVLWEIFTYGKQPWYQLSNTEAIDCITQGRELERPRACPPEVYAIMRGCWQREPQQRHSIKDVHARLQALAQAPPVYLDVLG
# Procedure: as §1
# [8] = molecular target: T8, MST1R (RON) (Homo sapiens, UniProt Q04912); assay: Kinase screening service: MST1R; conditions: average of duplicates
# T8 construct: purchased Life Technologies Corporation (Kinase Screening Service)
# Procedure: as §1
# [9] = molecular target: T9, PAK6 (Homo sapiens, UniProt Q9NQU5); assay: Kinase screening service: PAK6; conditions: average of duplicates
# T9 construct: purchased Life Technologies Corporation (Kinase Screening Service)
# Procedure: as §1
# [10] = molecular target: T10, GSK3A (GSK3 alpha) (Homo sapiens, UniProt P49840); assay: Kinase screening service: GSK3A; conditions: average of duplicates
# T10 construct: purchased Life Technologies Corporation (Kinase Screening Service)
# Procedure: as §1
# [11] = molecular target: T11, RPS6KA4 (MSK2) (Homo sapiens, UniProt O75676); assay: Kinase screening service: RPS6KA4; conditions: average of duplicates
# T11 construct: purchased Life Technologies Corporation (Kinase Screening Service)
# Procedure: as §1
# [12] = molecular target: T12, PIK3C2A (PI3K-C2 alpha) (Homo sapiens, UniProt O00443); assay: Kinase screening service: PIK3C2A; conditions: average of duplicates
# T12 construct: purchased Life Technologies Corporation (Kinase Screening Service)
# T12 sequence (O00443 whole entry): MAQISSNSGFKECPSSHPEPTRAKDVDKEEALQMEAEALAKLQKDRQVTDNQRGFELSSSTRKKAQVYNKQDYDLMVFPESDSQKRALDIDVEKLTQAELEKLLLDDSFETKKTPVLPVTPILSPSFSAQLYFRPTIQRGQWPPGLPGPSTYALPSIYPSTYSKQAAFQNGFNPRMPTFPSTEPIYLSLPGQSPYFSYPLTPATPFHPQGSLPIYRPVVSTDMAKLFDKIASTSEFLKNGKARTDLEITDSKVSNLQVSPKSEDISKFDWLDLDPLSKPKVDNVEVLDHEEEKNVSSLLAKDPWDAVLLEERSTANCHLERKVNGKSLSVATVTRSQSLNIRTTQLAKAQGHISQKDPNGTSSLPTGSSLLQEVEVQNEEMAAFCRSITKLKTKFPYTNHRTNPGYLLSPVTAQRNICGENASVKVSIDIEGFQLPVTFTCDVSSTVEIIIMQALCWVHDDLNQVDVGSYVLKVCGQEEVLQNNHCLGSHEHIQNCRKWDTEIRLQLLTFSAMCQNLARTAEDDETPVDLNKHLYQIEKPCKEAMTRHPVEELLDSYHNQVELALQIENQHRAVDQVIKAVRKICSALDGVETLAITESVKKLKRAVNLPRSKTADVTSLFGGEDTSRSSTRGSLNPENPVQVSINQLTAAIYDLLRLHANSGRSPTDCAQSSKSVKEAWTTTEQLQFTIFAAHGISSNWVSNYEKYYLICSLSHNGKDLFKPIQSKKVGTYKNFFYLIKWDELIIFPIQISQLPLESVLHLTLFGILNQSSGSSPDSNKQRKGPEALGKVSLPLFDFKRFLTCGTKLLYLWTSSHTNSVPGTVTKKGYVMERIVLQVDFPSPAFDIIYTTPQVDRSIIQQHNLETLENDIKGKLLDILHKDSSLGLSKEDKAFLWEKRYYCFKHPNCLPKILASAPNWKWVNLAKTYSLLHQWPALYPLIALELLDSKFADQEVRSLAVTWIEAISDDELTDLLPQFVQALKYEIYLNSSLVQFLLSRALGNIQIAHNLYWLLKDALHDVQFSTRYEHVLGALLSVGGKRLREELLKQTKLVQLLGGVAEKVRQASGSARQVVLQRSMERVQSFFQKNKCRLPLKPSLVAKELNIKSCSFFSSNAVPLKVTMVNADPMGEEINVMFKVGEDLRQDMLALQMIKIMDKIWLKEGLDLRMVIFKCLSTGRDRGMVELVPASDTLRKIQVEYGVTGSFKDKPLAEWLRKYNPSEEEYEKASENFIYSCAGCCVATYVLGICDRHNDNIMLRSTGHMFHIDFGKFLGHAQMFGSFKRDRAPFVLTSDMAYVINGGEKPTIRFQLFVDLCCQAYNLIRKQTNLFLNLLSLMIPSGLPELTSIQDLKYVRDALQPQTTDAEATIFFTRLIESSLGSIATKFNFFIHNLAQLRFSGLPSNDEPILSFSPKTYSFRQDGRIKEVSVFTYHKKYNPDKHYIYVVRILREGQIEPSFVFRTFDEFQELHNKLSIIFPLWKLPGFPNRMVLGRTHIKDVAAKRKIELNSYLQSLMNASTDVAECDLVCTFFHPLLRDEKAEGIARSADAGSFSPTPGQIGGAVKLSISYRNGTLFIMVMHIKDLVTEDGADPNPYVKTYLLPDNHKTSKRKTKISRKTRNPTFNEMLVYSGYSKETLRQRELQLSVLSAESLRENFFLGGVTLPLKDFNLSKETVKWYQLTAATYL
# Procedure: as §1
# [13] = molecular target: T13, CSNK1E (CK1 epsilon) (Homo sapiens, UniProt P49674); assay: Kinase screening service: CSNK1E; conditions: average of duplicates
# T13 construct: purchased Life Technologies Corporation (Kinase Screening Service)
# Procedure: as §1
# [14] = molecular target: T14, PIK3CG (p110 gamma) (Homo sapiens, UniProt P48736); assay: Kinase screening service: PIK3CG; conditions: average of duplicates
# T14 construct: purchased Life Technologies Corporation (Kinase Screening Service)
# Procedure: as §1
# [15] = molecular target: T15, CDK5/p25 (Homo sapiens, UniProt Q00535); assay: Kinase screening service: CDK5/p25; conditions: average of duplicates
# T15 construct: purchased Life Technologies Corporation (Kinase Screening Service)
# Procedure: as §1
# [16] = molecular target: T16, ULK2 (Homo sapiens, UniProt Q8IYT8); assay: Kinase screening service: ULK2; conditions: average of duplicates
# T16 construct: purchased Life Technologies Corporation (Kinase Screening Service)
# Procedure: as §1
# [17] = molecular target: T17, NEK6 (Homo sapiens, UniProt Q9HC98); assay: Kinase screening service: NEK6; conditions: average of duplicates
# T17 construct: purchased Life Technologies Corporation (Kinase Screening Service)
# T17 sequence (Q9HC98 whole entry): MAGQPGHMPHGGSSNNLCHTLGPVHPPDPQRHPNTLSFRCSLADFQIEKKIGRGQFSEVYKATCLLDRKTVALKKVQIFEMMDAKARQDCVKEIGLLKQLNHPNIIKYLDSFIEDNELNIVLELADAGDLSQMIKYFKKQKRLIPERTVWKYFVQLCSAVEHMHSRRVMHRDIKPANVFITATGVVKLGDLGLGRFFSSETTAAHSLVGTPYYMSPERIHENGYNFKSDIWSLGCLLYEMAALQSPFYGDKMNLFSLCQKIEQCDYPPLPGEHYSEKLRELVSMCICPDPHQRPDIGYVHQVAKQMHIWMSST
# Procedure: as §1
# [18] = molecular target: T18, HIPK1 (Myak) (Homo sapiens, UniProt Q86Z02); assay: Kinase screening service: HIPK1; conditions: average of duplicates
# T18 construct: purchased Life Technologies Corporation (Kinase Screening Service)
# Procedure: as §1
# [19] = molecular target: T19, MYO3B (MYO3 beta) (Homo sapiens, UniProt Q8WXR4); assay: Kinase screening service: MYO3B; conditions: average of duplicates
# T19 construct: purchased Life Technologies Corporation (Kinase Screening Service)
# Procedure: as §1
# [20] = molecular target: T20, MAP3K2 (MEKK2) (Homo sapiens, UniProt Q9Y2U5); assay: Kinase screening service: MAP3K2; conditions: average of duplicates
# T20 construct: purchased Life Technologies Corporation (Kinase Screening Service)
# T20 sequence (Q9Y2U5 whole entry): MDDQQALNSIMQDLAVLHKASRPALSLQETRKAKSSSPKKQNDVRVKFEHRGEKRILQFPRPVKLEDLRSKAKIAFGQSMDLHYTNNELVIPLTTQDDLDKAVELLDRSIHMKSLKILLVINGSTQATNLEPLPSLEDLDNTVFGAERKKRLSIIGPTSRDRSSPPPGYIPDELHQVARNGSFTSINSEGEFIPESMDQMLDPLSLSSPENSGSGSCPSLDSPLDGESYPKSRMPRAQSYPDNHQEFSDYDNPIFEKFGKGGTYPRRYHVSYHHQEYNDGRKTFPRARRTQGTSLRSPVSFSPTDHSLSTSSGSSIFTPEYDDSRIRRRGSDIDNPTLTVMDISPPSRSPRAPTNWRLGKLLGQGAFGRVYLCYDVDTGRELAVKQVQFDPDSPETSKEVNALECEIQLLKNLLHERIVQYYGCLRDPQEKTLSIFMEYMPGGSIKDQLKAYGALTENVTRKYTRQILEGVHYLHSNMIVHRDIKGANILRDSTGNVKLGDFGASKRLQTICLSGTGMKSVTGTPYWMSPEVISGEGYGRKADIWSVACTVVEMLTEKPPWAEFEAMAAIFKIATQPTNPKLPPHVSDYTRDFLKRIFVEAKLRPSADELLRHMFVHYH
# Procedure: as §1
# [21] = molecular target: T21, CDK5/p35 (Homo sapiens, UniProt Q00535); assay: Kinase screening service: CDK5/p35; conditions: average of duplicates
# T21 construct: purchased Life Technologies Corporation (Kinase Screening Service)
# Procedure: as §1
# [22] = molecular target: T22, SGK3 (Homo sapiens, UniProt Q96BR1); assay: Kinase screening service (Life Technologies): SGK3
# T22 construct: purchased Life Technologies Corporation (kinase screening service)
# From the text: (§2) The inhibitory effect of PT109 on SGK and INK was detected by the kinase screening commercialization service of Life Technologies Corporation.
# [23] = molecular target: T23, MAP3K7/MAP3K7IP1 (TAK1-TAB1) (Homo sapiens, UniProt O43318); assay: Kinase screening service: MAP3K7/MAP3K7IP1; conditions: average of duplicates
# T23 construct: purchased Life Technologies Corporation (Kinase Screening Service)
# Procedure: as §1
# [24] = molecular target: T24, CHUK (IKK alpha) (Homo sapiens, UniProt O15111); assay: Kinase screening service: CHUK; conditions: average of duplicates
# T24 construct: purchased Life Technologies Corporation (Kinase Screening Service)
# Procedure: as §1
# [25] = molecular target: T25, PRKCI (PKC iota) (Homo sapiens, UniProt P41743); assay: Kinase screening service: PRKCI; conditions: average of duplicates
# T25 construct: purchased Life Technologies Corporation (Kinase Screening Service)
# Procedure: as §1
# [26] = molecular target: T26, SGK (SGK1) (Homo sapiens, UniProt O00141); assay: Kinase screening service (Life Technologies): SGK1; conditions: SGK (SGK1)
# T26 construct: IC50; other: SGK (SGK1); other: 10 μM, average of duplicates; SGK (SGK1)
# T26 sequence (O00141 whole entry S422D, form open): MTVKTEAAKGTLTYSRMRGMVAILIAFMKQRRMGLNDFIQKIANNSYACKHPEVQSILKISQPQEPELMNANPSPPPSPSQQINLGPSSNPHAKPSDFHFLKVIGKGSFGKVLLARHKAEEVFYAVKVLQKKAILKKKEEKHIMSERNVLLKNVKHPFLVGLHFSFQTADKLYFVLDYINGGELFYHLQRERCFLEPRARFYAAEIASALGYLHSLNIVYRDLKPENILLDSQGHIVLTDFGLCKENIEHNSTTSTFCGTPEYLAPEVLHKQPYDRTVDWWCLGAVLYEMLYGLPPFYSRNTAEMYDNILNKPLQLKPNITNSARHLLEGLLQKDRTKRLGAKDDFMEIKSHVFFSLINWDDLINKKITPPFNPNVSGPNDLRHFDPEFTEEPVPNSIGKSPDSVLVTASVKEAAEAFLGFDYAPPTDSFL
# Procedure: as §2, §1
# [27] = tested on: SGK (SGK1); assay: Kinase screening service (Life Technologies): SGK1; conditions: SGK1 versus SGK2 and SGK3
# Procedure: as §2, §1
# [28] = molecular target: T27, AURKC (Aurora C) (Homo sapiens, UniProt Q9UQB9); assay: Kinase screening service: AURKC; conditions: average of duplicates
# T27 construct: purchased Life Technologies Corporation (Kinase Screening Service)
# Procedure: as §1
# [29] = molecular target: T28, PRKCH (PKC eta) (Homo sapiens, UniProt P24723); assay: Kinase screening service: PRKCH; conditions: average of duplicates
# T28 construct: purchased Life Technologies Corporation (Kinase Screening Service)
# Procedure: as §1
# [30] = molecular target: T29, STK22D (TSSK1) (Homo sapiens, UniProt Q9BXA7); assay: Kinase screening service: STK22D; conditions: average of duplicates
# T29 construct: purchased Life Technologies Corporation (Kinase Screening Service)
# Procedure: as §1
# [31] = molecular target: T30, AKT2 (PKB beta) (Homo sapiens, UniProt P31751); assay: Kinase screening service: AKT2; conditions: average of duplicates
# T30 construct: purchased Life Technologies Corporation (Kinase Screening Service)
# Procedure: as §1
# [32] = molecular target: T31, LTK (TYK1) (Homo sapiens, UniProt P29376); assay: Kinase screening service: LTK; conditions: average of duplicates
# T31 construct: purchased Life Technologies Corporation (Kinase Screening Service)
# Procedure: as §1
# [33] = molecular target: T32, PRKCA (PKC alpha) (Homo sapiens, UniProt P17252); assay: Kinase screening service: PRKCA; conditions: average of duplicates
# T32 construct: purchased Life Technologies Corporation (Kinase Screening Service)
# Procedure: as §1
# [34] = molecular target: T33, PDK1 Direct (Homo sapiens, UniProt O15530); assay: Kinase screening service: PDK1 Direct; conditions: average of duplicates
# T33 construct: purchased Life Technologies Corporation (Kinase Screening Service)
# Procedure: as §1
# [35] = molecular target: T34, AKT1 (PKB alpha) (Homo sapiens, UniProt P31749); assay: Kinase screening service: AKT1; conditions: average of duplicates
# T34 construct: purchased Life Technologies Corporation (Kinase Screening Service)
# Procedure: as §1
# [36] = molecular target: T35, SLK (Homo sapiens, UniProt Q9H2G2); assay: Kinase screening service: SLK; conditions: average of duplicates
# T35 construct: purchased Life Technologies Corporation (Kinase Screening Service)
# T35 sequence (Q9H2G2 whole entry): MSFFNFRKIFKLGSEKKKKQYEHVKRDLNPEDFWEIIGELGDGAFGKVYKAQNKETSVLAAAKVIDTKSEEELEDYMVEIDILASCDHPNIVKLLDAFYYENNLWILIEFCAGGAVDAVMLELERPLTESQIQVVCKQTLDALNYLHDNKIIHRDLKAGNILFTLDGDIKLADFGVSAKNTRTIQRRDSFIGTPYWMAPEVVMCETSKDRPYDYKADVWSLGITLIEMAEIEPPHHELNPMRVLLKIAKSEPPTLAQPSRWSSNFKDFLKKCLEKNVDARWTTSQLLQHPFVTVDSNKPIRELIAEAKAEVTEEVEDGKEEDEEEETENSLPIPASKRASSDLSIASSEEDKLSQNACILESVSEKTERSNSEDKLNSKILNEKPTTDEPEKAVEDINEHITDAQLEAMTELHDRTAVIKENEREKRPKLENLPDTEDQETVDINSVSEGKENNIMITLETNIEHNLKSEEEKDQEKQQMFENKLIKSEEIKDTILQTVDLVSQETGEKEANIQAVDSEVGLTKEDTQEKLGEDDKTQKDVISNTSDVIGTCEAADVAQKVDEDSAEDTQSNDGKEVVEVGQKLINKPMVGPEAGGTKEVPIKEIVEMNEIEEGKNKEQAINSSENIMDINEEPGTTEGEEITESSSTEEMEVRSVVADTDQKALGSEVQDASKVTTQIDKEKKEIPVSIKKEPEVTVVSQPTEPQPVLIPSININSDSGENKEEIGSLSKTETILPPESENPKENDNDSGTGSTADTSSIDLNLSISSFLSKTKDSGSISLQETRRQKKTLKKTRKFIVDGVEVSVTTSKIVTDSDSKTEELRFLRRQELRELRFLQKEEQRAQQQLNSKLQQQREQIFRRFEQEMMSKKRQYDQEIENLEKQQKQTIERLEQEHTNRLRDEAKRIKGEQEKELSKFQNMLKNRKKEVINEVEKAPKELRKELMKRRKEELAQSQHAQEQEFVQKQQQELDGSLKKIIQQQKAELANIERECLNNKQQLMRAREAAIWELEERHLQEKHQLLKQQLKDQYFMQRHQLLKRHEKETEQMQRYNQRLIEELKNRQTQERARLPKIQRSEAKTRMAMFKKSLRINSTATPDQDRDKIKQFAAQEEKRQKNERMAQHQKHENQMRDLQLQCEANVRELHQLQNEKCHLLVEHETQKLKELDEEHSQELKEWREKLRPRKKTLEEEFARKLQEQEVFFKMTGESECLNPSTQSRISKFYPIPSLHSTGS
# Procedure: as §1
structure (smiles),measurement,setting,value
"O=C(CCCCC1CCSS1)NC1CCC(Nc2cccc3cnccc23)CC1 (stereo not shown) [PT109, 5-(1,2-dithiolan-3-yl)-N-(4-(isoquinolin-5-ylamino)cyclohexyl) pentanamide]",inhibition at 10 µM,[1],9%
same,inhibition at 10 µM,[2],-2%
same,inhibition at 10 µM,[3],-6%
same,inhibition at 10 µM,[4],12%
same,inhibition at 10 µM,[5],16%
same,inhibition at 10 µM,[6],3%
same,inhibition at 10 µM,[7],35%
same,inhibition at 10 µM,[8],35%
same,inhibition at 10 µM,[9],-16%
same,inhibition at 10 µM,[10],41%
same,inhibition at 10 µM,[11],28%
same,inhibition at 10 µM,[12],3%
same,inhibition at 10 µM,[13],10%
same,inhibition at 10 µM,[14],9%
same,inhibition at 10 µM,[15],18%
same,inhibition at 10 µM,[16],4%
same,inhibition at 10 µM,[17],3%
same,inhibition at 10 µM,[18],0%
same,inhibition at 10 µM,[19],43%
same,inhibition at 10 µM,[20],10%
same,inhibition at 10 µM,[21],26%
same,IC50,[22],26.4 µM
same,inhibition at 10 µM,[23],39%
same,inhibition at 10 µM,[24],16%
same,inhibition at 10 µM,[25],-14%
same,% Inhibition,"[26]; 10 μM, average of duplicates",91%
same,IC50,[26],1340 nM
same,specificity for SGK1,[27],better specificity for SGK1
same,inhibition at 10 µM,[28],5%
same,inhibition at 10 µM,[29],-17%
same,inhibition at 10 µM,[30],-2%
same,inhibition at 10 µM,[31],30%
same,inhibition at 10 µM,[32],40%
same,inhibition at 10 µM,[33],25%
same,inhibition at 10 µM,[34],51%
same,inhibition at 10 µM,[35],22%
same,inhibition at 10 µM,[36],5%
